Measured values as given in US20240148691A1, “Treatment of Hypertension-Related and Vascular Diseases” (The Medical College of Wisconsin, Inc., priority 2021, published 2024).
Entries after “also recorded” stand apart in the source; their conditions may differ.

Assays:
[1] = test system: hypertension-induced nephropathy; experiment: Urinary protein excretion in salt-sensitive hypertensive rats; assay type: in vivo, rat
Description: (§1) SS rats were weaned at 3 weeks of age and transferred to 1% salt diet for additional 3 weeks before treatment. At 6 weeks of age, rats were either given vehicle control or SHetA2 at 60 mg/kg by oral gavage. Oral gavage was performed 3 times weekly every other day for a period of 18 weeks. […] Urine was collected from rats housed in metabolic cages for 1-2 hours, approximately 24 hours after last treatment after 6, 12 and 18 weeks of treatment. […] Vascular reactivity of renal afferent arterioles was measured using the juxtamedullary nephron technique approximately 24 hours after final treatment (18 weeks) (FIG. 7).
Hypertension-induced nephropathy causes excessive protein excretion in the urine.

[2] = Blood pressure and body weight during long-term treatment of hypertensive rats; assay type: in vivo, rat
Description: To assess whether treatment with SHetA2 would reduce the systolic blood pressure in hypertensive rats, animals were treated for 18 weeks with either vehicle control or SHetA2.
as §1

[3] = test system: diabetic nephropathy; experiment: Urinary protein excretion in diabetic animals; assay type: in vivo, rat
Excerpt: (§2) The inventors hypothesized that SHetA2 would be effective in preventing and treating diabetic nephropathy. Therefore, the inventors treated rats with diabetes induced by streptozotocin (STZ) with SHetA2. […] (FIGS. 20-21).

[4] = cited from earlier work
[5] = test system: renal afferent arterioles; experiment: Renal afferent arteriole microvascular responses (juxtamedullary nephron technique) after chronic treatment of hypertensive SS rats; assay type: in vivo, rat
Description: (§3) Microvascular responses of renal afferent preglomerular arterioles to perfused pressure. Juxtamedullary nephron vasculature was isolated, and an afferent arteriole was monitored continuously by videomicroscopy. SS/BN2 refers to BN chromosome replacement into SS background. Thus, SS/BN2 are not expected to be salt-sensitive and represent a control for the SS strain.
Vascular reactivity of renal afferent arterioles was measured using the juxtamedullary nephron technique approximately 24 hours after final treatment (18 weeks) (FIG. 9). Remarkably, SHetA2 restored renal microvascular responses in hypertensive rats, as detected by response of afferent arterioles either to increasing perfusion pressure or to ATP, known mediator of afferent arteriolar autoregulatory responses (FIG. 8).
as §1

[6] = test system: renal afferent preglomerular arterioles; experiment: Renal afferent preglomerular arteriole microvascular responses, SHetA2 added in vitro; parameters: species or system rat
Excerpt: as §3
Microvascular reactivity of renal blood vessels is reduced in two major causes of end stage renal disease: hypertension-induced nephropathy (HN) and diabetic nephropathy. One of the highlights of vascular dysfunction in HN is the loss of autoregulation of blood resistance vessels. Using rat model of salt-sensitive (SS) HN we have previously shown that overexpression of adaptor protein p66Shc is implicated in the loss of microvascular reactivity during the progression of HN (FIGS. 3, 5). In HN p66Shc is over-expressed in vascular smooth muscle cells of the walls of renal resistance arteries, including afferent arteriole (FIG. 4). p66Shc knockout restores the ability of afferent arteriole to contract in response to increased perfusion pressure and ATP (FIG. 5) and mitigates glomerular damage in SS rats on 1% salt diet. In this study, we tested ability of a flexible heteroarotinoid called Sulfur Heteroarotinoid A2 (SHetA2, pronounced Ess-Het-Aye-Two), known to inhibit p66Shc action, to prevent development and restore renal microvascular responses in hypertensive rats when added after the development of hypertension-induced nephropathy. […] Remarkably, SHetA2 prevented loss of microvascular reactivity and restored renal microvascular responses in hypertensive rats, as detected by response of afferent arterioles either to increasing perfusion pressure or to ATP, known mediator of afferent arteriolar autoregulatory responses (FIG. 6).

[7] = test system: afferent arterioles; experiment: Renal microvascular responses in streptozotocin-induced diabetic rats; assay type: in vivo, rat; conditions: for renal microvascular responses: diabetic animals
Excerpt: as §2

[8] = test system: KATP channels; experiment: Glibenclamide-induced arteriole constriction in diabetic rats; parameters: species or system rat
Excerpt: The inventors hypothesized that SHetA2 acts by inhibiting p66Shc-induced activation of KATP channels in diabetic animals. Therefore, the inventors treated control and SHetA2 treated arterioles with increasing concentrations of glibenclamide, antidiabetic drug which binds and inhibits the ATP-sensitive potassium channel's KATP inhibitory subunit which causes increasing of intracellular Ca^2+ concentrations leading to arteriole constriction.

CC1(C)CC(C)(C)c2cc(NC(=S)Nc3ccc([N+](=O)[O-])cc3)ccc2S1 [SHetA2, Sulfur Heteroarotinoid A2]
urinary protein excretion ([1]; S36A salt-sensitive animals): reduces or prevents | urinary protein excretion ([1]; wild type SS hypertensive rats, SHetA2 60 mg/kg oral gavage, vs control-treated rats, 60 mg/kg): statistically significant decrease; also recorded: significantly reduces | urinary protein excretion ([1]; wild type SS hypertensive rats, SHetA2 60 mg/kg oral gavage, vs control-treated rats, listed as SHet2A): reduces or prevents | progression of hypertension / increase of blood pressure ([2]; 1% salt diet, long-term treatment): did not prevent; also recorded: lack of effect | systolic blood pressure ([2]; hypertensive rats, 18 weeks treatment vs vehicle): did not significantly reduce | body weight ([2]; long-term treatment): lack of effect | urinary protein excretion [3]: reduces or prevents | effect on heart function ([4]; animal models, after months of treatment): does not have any detectable effect | teratogenicity (birth defects) ([4]; animal models): does not cause | toxicity ([4]; oral, doses 25-fold above the doses used in the rat hypertensive model): no toxicity | renal microvascular responses of afferent arterioles to increasing perfusion pressure or ATP ([5]; hypertensive SS rats, 1% salt diet, SHetA2 60 mg/kg oral gavage 3 times weekly, 18 weeks, about 24 hours after final treatment, 60 mg/kg): restored | renal damage ([5]; hypertensive rats): mitigates | vessel diameter after chronic administration of SHetA2 ([5]; male and female rats (FIG. 17)): decrease | vessel diameter in response to SHetA2 treatment ([6]; dose dependence (FIG. 14)): dose-dependent decrease | renal microvascular responses in renal afferent preglomerular arterioles ([6]; in vitro, hypertensive rats (FIG. 6)): partially restored | renal microvascular response ([6]; salt-sensitive rats with hypertension, dose dependence (FIG. 14)): dose-dependent increase | development of microvascular damage ([7]; STZ diabetic rats): successfully prevented | renal microvascular responses ([7]; acute treatment): increased | renal microvascular responses ([7]; chronic treatment, oral gavage every other day): increased | signs of diabetic nephropathy (dilation of afferent arterioles) ([7]; p66ShcKO rats treated with STZ): absence of effect | signs of diabetic nephropathy (dilation of afferent arterioles) ([7]; rats treated with streptozotocin (STZ)): reduces or prevents

COc1ccc(Cl)cc1C(=O)NCCc1ccc(S(=O)(=O)NC(=O)NC2CCCCC2)cc1 [glibenclamide]
arteriole constriction ([8]; control arterioles, increasing glibenclamide concentrations): caused constriction | signs of diabetic nephropathy ([8]; diabetic p66ShcKO rats): not diabetic p66ShcKO rats | signs of diabetic nephropathy ([8]; diabetic rats): effective in attenuating | glibenclamide effect / arteriole constriction ([8]; diabetic rats / arterioles treated with SHetA2, increasing glibenclamide concentrations): not in SHetA2 treated arterioles; also recorded: lack of glibenclamide effect
